Measured values taken from ChEMBL document CHEMBL5331140, “Discovery of IACS-52825, a Potent and Selective DLK Inhibitor for Treatment of Chemotherapy-Induced Peripheral Neuropathy” (J Med Chem, 2023).
≈ marks a conversion by molar mass, not a printed value.

Key:
[1] = target: T1, Mitogen-activated protein kinase kinase kinase 12 (Homo sapiens, UniProt Q12852); experiment: Inhibition of doxycycline-inducible human DLK transfected in HEK293 cells assessed as reduction in c-Jun phosphorylation at Ser63 residue incubated for 5 hrs; assay type: cell-based
T1 sequence (Q12852 whole entry): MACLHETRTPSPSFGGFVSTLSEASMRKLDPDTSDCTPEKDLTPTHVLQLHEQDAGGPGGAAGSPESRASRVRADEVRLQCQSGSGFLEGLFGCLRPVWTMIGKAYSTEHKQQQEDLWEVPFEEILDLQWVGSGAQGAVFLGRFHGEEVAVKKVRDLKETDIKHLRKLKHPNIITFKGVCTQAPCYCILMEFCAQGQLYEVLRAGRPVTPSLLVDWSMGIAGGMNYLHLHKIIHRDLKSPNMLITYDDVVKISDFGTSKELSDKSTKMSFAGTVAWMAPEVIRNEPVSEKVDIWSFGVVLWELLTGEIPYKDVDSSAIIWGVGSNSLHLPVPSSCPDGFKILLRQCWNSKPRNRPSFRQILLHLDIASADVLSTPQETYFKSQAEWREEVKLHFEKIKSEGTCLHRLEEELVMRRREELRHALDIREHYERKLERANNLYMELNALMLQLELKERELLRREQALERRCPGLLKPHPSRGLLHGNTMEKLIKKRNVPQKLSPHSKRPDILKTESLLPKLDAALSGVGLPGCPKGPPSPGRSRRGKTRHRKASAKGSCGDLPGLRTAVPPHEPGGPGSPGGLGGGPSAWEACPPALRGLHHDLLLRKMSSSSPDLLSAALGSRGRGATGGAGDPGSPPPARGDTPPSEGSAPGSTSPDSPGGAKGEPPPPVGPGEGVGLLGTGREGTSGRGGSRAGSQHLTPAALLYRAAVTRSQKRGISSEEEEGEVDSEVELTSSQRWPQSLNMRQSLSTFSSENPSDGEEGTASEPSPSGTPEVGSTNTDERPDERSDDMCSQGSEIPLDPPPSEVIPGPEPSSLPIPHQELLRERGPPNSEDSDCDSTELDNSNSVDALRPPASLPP

[2] = Metabolic stability in mouse liver microsomes assessed as intrinsic clearance at 1 uM in presence of NADPH regenerating system measured for 45 mins by LC-MS/MS analysis; assay type: ADME, Microsome; conditions: read-out: CLH
[3] = Oral bioavailability in C57BL/6 mouse at 10 mg/kg administered via oral gavage and measured for 24 hrs by LC-MS/MS analysis; assay type: ADME, organism-based; conditions: C57BL/6, mouse, in vivo
[4] = Half life in cynomolgus monkey at 1 mg/kg, po or 0.3 mg/kg, iv measured for 24 hrs by LC-MS/MS analysis; assay type: ADME, organism-based, Macaca fascicularis; conditions: in vivo
[5] = Plasma clearance in C57BL/6 mouse at 0.3 mg/kg, iv administered via tail vein and measured for 24 hrs by LC-MS/MS analysis; assay type: ADME, organism-based
[6] = Cmax in C57BL/6 mouse at 10 mg/kg administered via oral gavage and measured for 24 hrs by LC-MS/MS analysis; assay type: ADME, organism-based; set-up: dose 10 mg/kg, time 24 hrs, route po; conditions: in vivo
[7] = Thermodynamic aqueous solubility of compound in FeSSIF at pH 5 incubated for 1 hr under shaking condition by LC-MS/MS analysis; assay type: physicochemical; conditions: read-out: Therm_solubility
[8] = Permeability in wild type MDCK cells across apical to basolateral side at 5 uM incubated for 90 mins by LC-MS/MS analysis; assay type: ADME, cell-based, Canis lupus familiaris; conditions: dog, read-out: permeability
[9] = Permeability in wild type MDCK cells across basolateral to apical side at 5 uM incubated for 90 mins by LC-MS/MS analysis; assay type: ADME, cell-based, Canis lupus familiaris; conditions: dog, read-out: permeability
[10] = Permeability in MDCK-MDR1 cells across basolateral to apical side at 5 uM incubated for 90 mins by LC-MS/MS analysis; assay type: ADME, cell-based, Canis lupus familiaris; conditions: dog, read-out: permeability
[11] = Metabolic stability in dog liver microsomes assessed as intrinsic clearance at 1 uM in presence of NADPH regenerating system measured for 45 mins by LC-MS/MS analysis; assay type: ADME, Canis lupus familiaris, Microsome; conditions: read-out: CLH
[12] = Metabolic stability in mouse hepatocytes assessed as intrinsic clearance at 2 uM measured for 120 mins by LC-MS analysis; assay type: ADME, cell-based, Hepatocyte; conditions: read-out: CLH
[13] = Metabolic stability in monkey hepatocytes assessed as intrinsic clearance at 2 uM measured for 120 mins by LC-MS analysis; assay type: ADME, cell-based, Macaca mulatta, Hepatocyte; conditions: rhesus monkey, read-out: CLH
[14] = Metabolic stability in human hepatocytes assessed as intrinsic clearance at 2 uM measured for 120 mins by LC-MS analysis; assay type: ADME, cell-based, Hepatocyte; conditions: read-out: CLH
[15] = Plasma protein binding in rat at 5 uM incubated for 5 hrs by rapid equilibrium dialysis method; assay type: ADME, cell-free; conditions: read-out: PPB (converted)
[16] = Plasma protein binding in monkey at 5 uM incubated for 5 hrs by rapid equilibrium dialysis method; assay type: ADME, cell-free, Macaca mulatta; conditions: rhesus monkey, read-out: PPB (converted)
[17] = Plasma protein binding in human at 5 uM incubated for 5 hrs by rapid equilibrium dialysis method; assay type: ADME, cell-free; conditions: read-out: PPB
[18] = Volume of distribution at steady state in Sprague-Dawley rat at 3 mg/kg, po or 1 mg/kg, iv measured for 24 hrs by LC-MS/MS analysis; assay type: ADME, organism-based; conditions: in vivo
[19] = Volume of distribution at steady state in cynomolgus monkey at 1 mg/kg, po or 0.3 mg/kg, iv measured for 24 hrs by LC-MS/MS analysis; assay type: ADME, organism-based, Macaca fascicularis; conditions: in vivo
[20] = Half life in Sprague-Dawley rat at 3 mg/kg, po or 1 mg/kg, iv measured for 24 hrs by LC-MS/MS analysis; assay type: ADME, organism-based; conditions: in vivo
[21] = Oral bioavailability in Sprague-Dawley rat at 3 mg/kg measured for 24 hrs by LC-MS/MS analysis; assay type: ADME, organism-based; conditions: in vivo
[22] = Cmax in Sprague-Dawley rat at 3 mg/kg, po or 1 mg/kg, iv measured for 24 hrs by LC-MS/MS analysis; assay type: ADME, organism-based; set-up: time 24 hrs, dose 3 mg/kg, route po; conditions: in vivo
[23] = Bioavailability in Beagle dog at 1 mg/kg, po or 0.3 mg/kg, iv measured for 24 hrs by LC-MS/MS analysis; assay type: ADME, organism-based, Canis lupus familiaris; conditions: in vivo
[24] = AUClast in Beagle dog at 1 mg/kg, po or 0.3 mg/kg, iv measured for 24 hrs by LC-MS/MS analysis; assay type: ADME, organism-based, Canis lupus familiaris; set-up: time 24 hrs, dose 1 mg/kg, route po; conditions: in vivo
[25] = Bioavailability in cynomolgus monkey at 1 mg/kg, po or 0.3 mg/kg, iv measured for 24 hrs by LC-MS/MS analysis; assay type: ADME, organism-based, Macaca fascicularis; conditions: in vivo
[26] = Cmax in cynomolgus monkey at 1 mg/kg, po or 0.3 mg/kg, iv measured for 24 hrs by LC-MS/MS analysis; assay type: ADME, organism-based, Macaca fascicularis; set-up: dose 1 mg/kg, time 24 hrs, route po; conditions: in vivo
[27] = AUClast in cynomolgus monkey at 1 mg/kg, po or 0.3 mg/kg, iv measured for 24 hrs by LC-MS/MS analysis; assay type: ADME, organism-based, Macaca fascicularis; set-up: dose 1 mg/kg, time 24 hrs, route po; conditions: in vivo
Mus musculus = experiment: Antiallodynic activity in po dosed C57BL/6 mouse model of cisplatin-induced mechanical allodynia assessed as increase in paw withdrawal threshold stimulated with cisplatin on day 1 to 5 and 10 to 15 followed by daily administration of compound starting from day 16 and measured for 43 days by von frey test; assay type: functional, organism-based; conditions: dose 3-30 mg/kg, time 28.0 day
[28] = Toxicity in monkey measured after 7 days by IND-enabling study; set-up: species or system Macaca mulatta; conditions: rhesus monkey, in vivo, 168 h; time 7 day
[29] = Toxicity in monkey assessed as optic nerve swelling measured after 28 days by IND-enabling study; set-up: species or system Macaca mulatta; conditions: rhesus monkey, in vivo, 672 h; time 28 day

For `Nc1ncc(-c2cn(C34CC(F)(C3)C4)c([C@@H](O)C(F)(F)F)n2)cc1OC(F)(F)F`, the IC50 [1] was 107 nM, the CLint scaled at 1 µM [2] was 14 mL/min/kg and the bioavailability [3] was greater than 100%. It also gave a half-life [4] of 7.2 h, a clearance [5] of 4.3 mL/min/kg and a Cmax [6] of 6400 nM. It also gave a solubility thermodynamic at 1 h [7] of 152 µM (≈ 64.8 µg/mL), a Papp A→B at 1.5 h, 5 µM [8] of 38 ×10⁻⁶ cm/s and a Papp B→A at 1.5 h, 5 µM [9] of 31 ×10⁻⁶ cm/s. The Papp B→A at 1.5 h, 5 µM [10] was 43 ×10⁻⁶ cm/s, the CLint scaled at 1 µM [11] was 12 mL/min/kg and the CLint scaled at 2 µM [12] was 2.5 mL/min/kg. The CLint scaled at 2 µM [13] was 23 mL/min/kg, the CLint scaled at 2 µM [14] was 11 mL/min/kg and the fraction unbound at 5 h, 5 µM [15] was 0.118. It also gave a fraction unbound at 5 h, 5 µM [16] of 0.139, a fraction unbound at 5 h, 5 µM [17] of 0.091 and a Vdss [18] of 5.6 L/kg. The Vdss [19] was 5.3 L/kg, the half-life [20] was 12 h and the bioavailability [21] was 95%. The Cmax [22] was 1300 nM, the bioavailability [23] was greater than 100% and the AUC(0-t) at 24 h [24] was 15.3 µM·h. For the same compound, the bioavailability [25] was greater than 100%, the Cmax [26] was 350 nM and the AUC(0-t) at 24 h [27] was 4.7 µM·h. The Activity (Mus musculus) was “Dose-Dependent Effect”, the Activity [28] was “Non-Toxic” and the Activity [29] was “Toxic”.
